Test results published in patent EP0326331B1, “Substituted quinolines and cinnolines” (Dow AgroSciences LLC, priority 1988, dated 1989).

Key:
Assay type in all cases: in vivo
corn rootworm = experiment: Mite/insect screen, CRW; conditions: percent mortality, read-out: CRW RESULTS %; for mortality at 12 ppm: CRW rate 12.00 ppm; for mortality at 24 ppm: CRW rate 24.00 ppm
How it was run: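 Compounds were dissolved in 50:50 acetone/alcohol containing sulfonate/nonionic emulsifier blends (23 g/L plus 13 g/L), then diluted with water to the test concentrations. Percent mortality was scored after standard exposure periods.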

[1] = system: Pseudoperonospora cubensis (downy mildew); experiment: Test 1 greenhouse foliar spray screen, downy mildew on squash; conditions: Pseudoperonospora cubensis, foliar, Test 1, foliar spray on squash; disease control rating at 400 ppm / 100 ppm; read-out: DOWN MDEW
[2] = system: Botrytis cinerea (gray mold); experiment: Test 1 greenhouse foliar spray screen, gray mold on grape berries; conditions: Botrytis cinerea, foliar; Test 1, spray on grape berries; disease control rating at 400 ppm / 100 ppm
[3] = system: Twospotted spider mites (Tetranychus urticae Koch); experiment: Mite/insect screen, SM; conditions: Tetranychus urticae, foliar, percent mortality, foliar spray on squash, read-out: SM RESULTS %; for mortality at 200 ppm: rate 200 ppm; for mortality at 400 ppm: rate 400 ppm
How it was run: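 Activity is expressed as percent mortality at the indicated spray concentrations. Plants are sprayed to runoff on upper and lower leaf surfaces with aqueous dilutions of an acetone/alcohol emulsifiable formulation, then dried for one hour.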

[4] = system: Puccinia recondita tritici (leaf rust); experiment: Test 1 greenhouse foliar spray screen, leaf rust on wheat; conditions: Puccinia recondita, foliar, Test 1, foliar spray on wheat; disease control rating at 400 ppm / 100 ppm
[5] = system: southern armyworm (Spodopetra eridania Cramer); experiment: Mite/insect screen, SAW; conditions: Spodoptera eridania, foliar, percent mortality, foliar spray on squash, read-out: SAW RESULTS %; for mortality at 200 ppm: rate 200 ppm; for mortality at 400 ppm: rate 400 ppm
How it was run: (§1)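 Compounds dissolved in 50:50 acetone/alcohol containing sulfonate/nonionic emulsifier blends, then diluted with water to the indicated concentrations. Leaves sprayed on both surfaces to runoff at 10 psi and dried one hour. Percent mortality scored after standard exposure periods.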

[6] = system: Pyricularia oryzae (rice blast); experiment: whole plant or invertebrate; conditions: Pyricularia oryzae, foliar, read-out: RICE BLAST, Test 1, foliar spray on rice; disease control rating at 400 ppm / 100 ppm
[7] = system: melon aphids (Aphis gossypii Glover); experiment: Mite/insect screen, MA; conditions: Aphis gossypii, foliar, percent mortality, foliar spray on squash, read-out: MA RESULTS %; for mortality at 200 ppm: rate 200 ppm; for mortality at 400 ppm: rate 400 ppm
How it was run: as §1

[8] = system: Erysiphe graminis tritici (powdery mildew); experiment: Test 1 greenhouse foliar spray screen, powdery mildew on wheat; conditions: Blumeria graminis, foliar, Test 1, foliar spray on wheat; disease control rating at 400 ppm / 100 ppm; read-out: POWD MDEW

| SMILES | mortality at 12 ppm (corn rootworm) [%] | mortality at 24 ppm (corn rootworm) [%] | pest or weed control at 400 ppm [1] [%] | pest or weed control at 400 ppm [2] [%] | mortality at 200 ppm [3] [%] | mortality at 400 ppm [3] [%] | pest or weed control at 400 ppm [4] [%] | mortality at 200 ppm [5] [%] | mortality at 400 ppm [5] [%] | pest or weed control at 400 ppm [6] [%] | mortality at 200 ppm [7] [%] | mortality at 400 ppm [7] [%] | pest or weed control at 400 ppm [8] [%] |
| --- | --- | --- | --- | --- | --- | --- | --- | --- | --- | --- | --- | --- | --- |
| Fc1ccc(CCOc2ccnc3cc(Cl)ccc23)c(F)c1 [Example 276, 7-chloro-4-[2-(2,4-difluorophenyl)ethoxy]quinoline] | 0 | 0 | 0 to 19 | 0 to 19 | 0 | 60 | 20 to 89 | 0 | 0 | 0 to 19 | 0 | 80 | 90 to 100 |
| CCOc1ccc(CCOc2ccnc3cc(Cl)cc(Cl)c23)cc1 [Example 277, 5,7-dichloro-4-[2-(4-ethoxyphenyl)ethoxy]quinoline] |  | 0 | 0 to 19 | 0 to 19 |  | 0 | 0 to 19 |  | 0 | 0 to 19 |  | 0 | 90 to 100 |
| CCCCOc1ccc(CCOc2ccnc3c(F)cccc23)cc1 [Example 278, 4-[2-(4-butoxyphenyl)ethoxy]-8-fluoroquinoline] | 0 | 0 | 90 to 100 | 0 to 19 | 60 | 0 | 90 to 100 | 0 | 100 | 90 to 100 | 90 | 0 | 90 to 100 |
| CCOc1ccc2nc(C)cc(OCCCOCc3ccccc3)c2c1 [Example 279, 6-ethoxy-2-methyl-4-[3-(phenylmethoxy)propoxy]quinoline] | 0 | 0 | 90 to 100 | 0 to 19 | 0 | 0 | 90 to 100 | 0 | 0 | 90 to 100 | 0 | 80 | 0 to 19 |
| Clc1cccc2c(NCCc3cccc(Oc4ccccc4)c3)ccnc12 [Example 280, 8-chloro-N-[2-(3-phenoxyphenyl)ethyl]-4-quinolinamine] | 0 | 0 | 90 to 100 | 0 to 19 | 0 | 0 | 90 to 100 | 60 | 0 | 90 to 100 | 0 | 0 | 90 to 100 |
| Clc1cccc2c(NCCCCc3ccccc3)ccnc12 [Example 281, 8-chloro-N-(4-phenylbutyl)-4-quinolinamine] | 0 | 0 | 90 to 100 | 0 to 19 | 0 | 0 | 20 to 89 | 0 | 0 | 90 to 100 | 0 | 0 | 20 to 89 |
| Fc1cccc2c(OCCCc3ccc(Oc4ccccc4)cc3)ccnc12 [Example 282, 8-fluoro-4-[3-(4-phenoxyphenyl)propoxy]quinoline] | 0 | 0 | 0 to 19 | 0 to 19 | 0 | 0 | 0 to 19 | 0 | 0 | 20 to 89 | 0 | 0 | 0 to 19 |
| CC(CNc1ccnc2cc(Cl)ccc12)c1ccc(Cl)cc1 (stereo not shown) [Example 283, 7-chloro-N-[2-(4-chlorophenyl)propyl]-4-quinolinamine] | 0 | 0 | 90 to 100 | 0 to 19 | 0 | 80 | 90 to 100 | 0 | 0 | 20 to 89 | 80 | 0 | 20 to 89 |
| Fc1cccc2c(OCCCC(Br)CBr)ccnc12 (stereo not shown) [Example 284, 4-[(4,5-dibromopentyl)oxy]-8-fluoroquinoline] | 0 | 0 | 20 to 89 | 0 to 19 | 0 | 0 | 90 to 100 | 0 | 0 | 90 to 100 | 0 | 0 | 0 to 19 |
| Fc1cccc2c(OCCCCCCCCOc3ccccc3)ccnc12 [Example 285, 8-fluoro-4-[(8-phenoxyoctyl)oxy]quinoline] | 0 | 0 | 0 to 19 | 0 to 19 | 40 | 0 | 0 to 19 | 0 | 0 | 0 to 19 | 80 | 0 | 0 to 19 |
| Cc1cc(OCCc2ccc(C(C)(C)C)cc2)c2cc(Cl)ccc2n1 [Example 286, 6-chloro-2-methyl-4-[2-[4-(t-butyl)phenyl]ethoxy]quinoline] | 0 | 0 | 0 to 19 | 0 to 19 | 0 | 0 | 20 to 89 | 0 | 0 | 0 to 19 | 0 | 0 | 20 to 89 |
| Fc1cccc2c(OCCCCCCOc3ccccc3)ccnc12 [Example 287, 8-fluoro-4-[(6-phenoxyhexyl)oxy]quinoline] | 0 | 0 | 90 to 100 | 0 to 19 | 0 | 0 | 20 to 89 | 0 | 0 | 0 to 19 | 80 | 0 | 0 to 19 |
| CC(C)(CNc1ccnc2c(Cl)cccc12)c1ccccc1 [Example 288, 8-chloro-N-(2-methyl-2-phenylpropyl)-4-quinolinamine] | 0 | 0 | 20 to 89 | 0 to 19 | 0 | 0 | 0 to 19 | 0 | 0 | 20 to 89 | 0 | 0 | 0 to 19 |
| CC(C)(CNc1ccnc2c(F)cccc12)c1ccccc1 [Example 289, 8-fluoro-N-(2-methyl-2-phenylpropyl)-4-quinolinamine] | 0 | 0 | 90 to 100 | 0 to 19 | 0 | 0 | 90 to 100 | 0 | 0 | 90 to 100 | 0 | 0 | 20 to 89 |
